From patent US7488758B2 (Teva Pharmaceutical Fine Chemicals, S.r.l., priority 2004, dated 2009)
Where two headings read alike, the source gives them in different places.

Details: for water content: after exposure at about 100% relative humidity for one week, hydrochloride; for water absorption, outcome in words: one-week exposure at 100% relative humidity; for LOD (%) (water content by TGA) / Polymorph by XRD: one week exposure
Procedure: After each exposure the water content was determined by Thermal Gravimetric Analysis (TGA) and reported as loss on drying (LOD) as a weight percentage and the crystal structure was determined by X-ray Diffraction (XRD).
The X-Ray diffraction (XRD) analysis was conducted using an ARL X-Ray powder diffractometer (model X'TRA-030) equipped with a Peltier detector, round standard aluminum sample holder with round zero background, and quartz plate. The scanning parameters were from a range of about 2-40 degree two θ (±0.2 degrees) and a continuous scan at a rate of about 3 degrees/min.
Thermal Gravimetric Analysis (TGA) was conducted using a Mettler Toledo TGA/SDTA 851^e using a sample weight of about 7-15 mg, a heating rate of about 10° C. min. under a N2 stream at a N2 flow rate of about 50 ml/min. The samples were scanned at a range between about 30° C. to about 250° C.

SMILES	water content	water absorption, outcome in words	LOD (%) (water content by TGA) (RH 0%)	LOD (%) (water content by TGA) (RH 20%)	LOD (%) (water content by TGA) (RH 40%)	LOD (%) (water content by TGA) (RH 60%)	LOD (%) (water content by TGA) (RH 80%)	Polymorph by XRD (RH 80%)	LOD (%) (water content by TGA) (RH 100%)	Polymorph by XRD (RH 100%)
CC(C)(C)NC[C@H](O)c1ccc(O)c(CO)c1.Cl [Polymorph A, (R)-α^1-[[(1,1-dimethylethyl)amino]methyl]-4-hydroxy-1,3-benzenedimethanol hydrochloride, reference compound]	about 34%	absorbed sufficient water to dissolve the polymorph	–	–	–	–	–	–	–	–
CC(C)(C)NC[C@H](O)c1ccc(O)c(CO)c1.Cl [Polymorph B, (R)-α^1-[[(1,1-dimethylethyl)amino]methyl]-4-hydroxy-1,3-benzenedimethanol hydrochloride]	about 36%	absorbed sufficient water to dissolve the polymorph	0.21	0.25	0.25	0.30	0.48	A >> B	36.0	only Polymorph A was detected
